In the test the test system is Staphylococcus aureus Smith. Briefly: MIC assay, modified agar dilution (CLSI), S. aureus Smith. It is filed as cell-based. The settings on record: agar dilution, 35° C., 16-20 hr, lowest concentration that completely inhibited growth; for MIC: Staphylococcus aureus, read-out: S_aureus_Smith_WT_MIC. As to the method: The potency of antibacterial agents was measured using the Minimal Inhibitory Concentration (MIC) assay. The assay measures the ability of test agents to inhibit the growth of bacteria on agar-containing medium.
The bacterial test strains used were exemplified by Staphylococcus aureus Smith, Enterococcus faecium A2373, Streptococcus pneumoniae IID554, and Escherichia coli ATCC 25922. All strains were maintained as frozen stocks held at −80° C. in skim milk. Other bacterial test strains are well known to those skilled in the art and can be used for testing.
Mueller Hinton Agar (MHA BBL; Becton Dickinson and Company, Sparks, Md.) was used as the medium. MHA was supplemented with 5% defibrinated horse blood (DHB; Nippon Biotest Laboratories inc.) to support the growth of S. pneumoniae and E. faecium.
MIC values were determined using a modified agar dilution procedure described by the Clinical and Laboratory Standards Institute (CLSI; Methods for Dilution Antimicrobial Susceptibility Tests for Bacteria That Grow Aerobically; Approved Standard—Eighth Edition. CLSI document M07-A8 [ISBN 1-56238-689-1]. Clinical and Laboratory Standards Institute, 940 West Valley Road, Suite 1400, Wayne, Pa. 19087-1898 USA, 2009).
Stock solutions (6.4 mgmL) of test compounds were prepared in 100% ultrapure dimethyl sulfoxide (DMSO; source) on the day of the assay. Subsequent serial dilutions were performed to generate solutions with concentrations ranging from 6.4 to 0.0002 mgmL in 100% DMSO.
Agar medium containing test compound was prepared by adding the dilutions of antimicrobial solution to molten MHA at a temperature of 45-50° C. The agar and antimicrobial solution were mixed thoroughly, poured into petri dishes, and allowed to solidify at room temperature. The final concentration of test compounds in the MHA medium ranged from 128 to 0.001 μg/mL with two-fold dilutions. MHA plates lacking antibacterial compound were used for growth controls.
Prior to susceptibility testing, the bacterial isolates were removed from frozen storage, thawed at room temperature, sub-cultured to MHA medium and incubated overnight at 35° C. S. pneumoniae and E. faecium were subcultured on MHA supplemented with 5% DHB at 35° C. with […]. Colonies from each plate were suspended in normal saline. This suspension was adjusted to the turbidity of a 0.5 McFarland standard, 1-2×10^8 colony forming units (CFU) per mL, and diluted 100-fold to 1-2×10^6 CFUmL.
Suspensions of bacterial cultures were applied to the surface of MHA plates containing test compound as well as to a growth control plate lacking test compound using an inoculum-replicating device with 4 mm pins. The replicating device applied 5 uL of the bacterial suspension such that each spot contained approx. 1×10^4 CFU. Plates were dried for about 40 min and incubated at 35° C. for 16-20 hr prior to scoring.
(In agar dilution, organisms are placed on agar that contains the substance at set levels.)

21 compounds from patent publication US20140243302A1, “BRIDGED BICYCLIC COMPOUNDS FOR THE TREATMENT OF BACTERIAL INFECTIONS” (priority 2011, published 2014) can be followed below.

The structures appear in SMILES notation. Values after ≈ are worked out from the molar mass of the structure shown.

Take `Cl.O=C1COc2ccc(CNC34CCC(CCn5c(=O)ccc6ncc(OCC7CC7C(=O)O)cc65)(CC3)OC4)nc2N1` (stereo not drawn) [Example 283, 2-((6-Oxo-5-(2-(4-((3-oxo-3,4-dihydro-2H-pyrido[3,2-b][1,4]oxazin-6-yl)methylamino)-2-oxabicyclo[2.2.2]octan-1-yl)ethyl)-5,6-dihydro-1,5-naphthyridin-3-yloxy)methyl)cyclopropanecarboxylic Acid Hydrochloride]: the MIC came to 16 µg/mL.
`COc1ccc2ncc(Cl)c(CC(O)C34CCC(NCc5ccc6c(n5)NC(=O)CO6)(CC3)CC4)c2n1.Cl` (single isomer, unassigned) [Example 14b, 6-((4-(2-(3-Chloro-6-methoxy-1,5-naphthyridin-4-yl)-1-hydroxyethyl)bicyclo[2.2.2]octan-1-ylamino)methyl)-2H-pyrido[3,2-b][1,4]oxazin-3(4H)-one Hydrochloride] had a S_aureus_Smith_WT_MIC of 0.0310 µg/mL.
On to `CNC(=O)COc1ccc2ncc(F)c(CCC34CCC(NC/C=C/c5cc(F)ccc5F)(CC3)CO4)c2n1` [Example 192, (E)-2-(8-(2-(4-(3-(2,5-Difluorophenyl)allylamino)-2-oxabicyclo[2.2.2]octan-1-yl)ethyl)-7-fluoro-1,5-naphthyridin-2-yloxy)-N-methylacetamide], for which the MIC came out at 0.031 µg/mL (≈ 0.0573 µM).
On the same count and under the same terms, then `COc1ccc2ncc(F)c(C[C@H](O)C34CCC(NCc5ccc6c(c5)NC(=O)CS6(=O)=O)(CC3)CO4)c2n1` [Example 205, (S)—N-((1,1-Dioxido-3-oxo-3,4-dihydro-2H-benzo[b][1,4]thiazin-6-yl)methyl)-1-(2-(3-fluoro-6-methoxy-1,5-naphthyridin-4-yl)-1-hydroxyethyl)-2-oxabicyclo[2.2.2]octan-4-aminium chloride], with 2 µg/mL; and `Cl.O=C1COc2ccc(CNC34CCC(CCc5c(F)cnc6ccc(OCCO)nc56)(CC3)OC4)nc2N1` [Example 34, 6-((1-(2-(3-Fluoro-6-(2-hydroxyethoxy)-1,5-naphthyridin-4-yl)ethyl)-2-oxabicyclo[2.2.2]octan-4-ylamino)methyl)-2H-pyrido[3,2-b][1,4]oxazin-3(4H)-one Hydrochloride], with 0.031 µg/mL; and `CCOC(=O)COc1ccc2ncc(F)c(CCC34CCC(NCc5ccc6c(n5)NC(=O)CO6)(CC3)CO4)c2n1` [Example 32, Ethyl 2-(7-Fluoro-8-(2-(4-((3-oxo-3,4-dihydro-2H-pyrido[3,2-b][1,4]oxazin-6-yl)methylamino)-2-oxabicyclo[2.2.2]octan-1-yl)ethyl)-1,5-naphthyridin-2-yloxy)acetate], with 0.25 µg/mL (≈ 0.442 µM).
For the compound `COc1ccc2ncc(F)c(CCC34CCC(NCc5ccc6c(c5)OCCO6)(CC3)CO4)c2n1` [Example 69, N-((2,3-Dihydrobenzo[b][1,4]dioxin-6-yl)methyl)-1-(2-(3-fluoro-6-methoxy-1,5-naphthyridin-4-yl)ethyl)-2-oxabicyclo[2.2.2]octan-4-amine], the MIC was determined as 0.008 µg/mL (≈ 0.0167 µM).
The same measure, in the same setting: then `N#Cc1ccc2ccc(=O)n(CCC34CCC(NCc5ccc6c(n5)NC(=O)CO6)(CC3)CO4)c2c1` [Example 180, 2-Oxo-1-[2-(4-{[(3-oxo-3,4-dihydro-2H-pyrido[3,2-b][1,4]oxazin-6-yl)methyl]amino}-2-oxabicyclo[2.2.2]oct-1-yl)ethyl]-1,2-dihydroquinoline-7-carbonitrile], with 0.031 µg/mL (≈ 0.0638 µM); and `COc1ccc2ncc(F)c(CCC34CCC(NCc5cn(-c6ncccn6)cn5)(CC3)CO4)c2n1` [Example 76, 1-(2-(3-Fluoro-6-methoxy-1,5-naphthyridin-4-yl)ethyl)-N-((1-(pyrimidin-2-yl)-1H-imidazol-4-yl)methyl)-2-oxabicyclo[2.2.2]octan-4-amine], with 0.125 µg/mL (≈ 0.255 µM); and `N#Cc1cnc2ccc(=O)n(CC(O)C34CCC(NCc5ccc6c(n5)NC(=O)CO6)(CC3)CO4)c2c1` (stereo not drawn) [Example 162, 5-(2-Hydroxy-2-(4-((3-oxo-3,4-dihydro-2H-pyrido[3,2-b][1,4]oxazin-6-yl)methylamino)-2-oxabicyclo[2.2.2]octan-1-yl)ethyl)-6-oxo-5,6-dihydro-1,5-naphthyridine-3-carbonitrile], with 2 µg/mL (≈ 3.98 µM).
With `COc1ccc2ncc(F)c(CCC34CCC(NCc5cc6c(F)ccc(F)c6nc5OC)(CC3)CO4)c2n1` [Example 288, N-((5,8-Difluoro-2-methoxyquinolin-3-yl)methyl)-1-(2-(3-fluoro-6-methoxy-1,5-naphthyridin-4-yl)ethyl)-2-oxabicyclo[2.2.2]octan-4-amine], the MIC came to 0.125 µg/mL (≈ 0.232 µM).
As for `COc1ccc2ncc(F)c(CCC34CCC(NCc5nc6c(cc5Cl)OCC(=O)N6)(CC3)CO4)c2n1.Cl` [Example 88, 7-chloro-6-(((1-(2-(3-fluoro-6-methoxy-1,5-naphthyridin-4-yl)ethyl)-2-oxabicyclo[2.2.2]octan-4-yl)amino)methyl)-2H-pyrido[3,2-b][1,4]oxazin-3(4H)-one], the MIC is 0.008 µg/mL.
The same measure, in the same setting: then `Cc1cccc2sc(C(=O)C34CCC(NCc5ccc6c(n5)NC(=O)CO6)(CC3)CC4)nc12` [Example 11, 6-((4-(4-Methylbenzo[d]thiazole-2-carbonyl)bicyclo[2.2.2]octan-1-ylamino)methyl)-2H-pyrido[3,2-b][1,4]oxazin-3(4H)-one], with 2 µg/mL (≈ 4.32 µM).
On the same count and under the same terms, then `COc1ccc2ncc(F)c(CC(O)C34CCC(NCc5nc6c(cc5F)OCC(=O)N6)(CC3)CO4)c2n1` (single isomer, unassigned) [Example 135, 7-Fluoro-6-((1-(2-(3-fluoro-6-methoxy-1,5-naphthyridin-4-yl)-1-hydroxyethyl)-2-oxabicyclo[2.2.2]octan-4-ylamino)methyl)-2H-pyrido[3,2-b][1,4]oxazin-3(4H)-one], with 0.031 µg/mL (≈ 0.0588 µM); and `O=C1COc2ccc(CNC34CCC(CCn5c(=O)ccc6cccnc65)(CC3)OC4)nc2N1` [Example 116, 6-((1-(2-(2-Oxo-1,8-naphthyridin-1(2H)-yl)ethyl)-2-oxabicyclo[2.2.2]octan-4-ylamino)methyl)-2H-pyrido[3,2-b][1,4]oxazin-3(4H)-one], with 16 µg/mL (≈ 34.7 µM).
Still for that read-out and setting: the result for `COc1ccc2ncc(F)c(CCC34CCC(NCc5ccc6c(n5)OCCO6)(CC3)CO4)c2n1` [Example 146, N-((2,3-Dihydro-[1,4]dioxino[2,3-b]pyridin-6-yl)methyl)-1-(2-(3-fluoro-6-methoxy-1,5-naphthyridin-4-yl)ethyl)-2-oxabicyclo[2.2.2]octan-4-amine] reads 0.125 µg/mL (≈ 0.26 µM).
As to `Cl.O=C1COc2ccc(CNC34CCC(C(O)Cc5c(F)cnc6ccc(OCCO)nc56)(CC3)OC4)nc2N1` (stereo not drawn) [Example 171, 6-((1-(2-(3-Fluoro-6-(2-hydroxyethoxy)-1,5-naphthyridin-4-yl)-1-hydroxyethyl)-2-oxabicyclo[2.2.2]octan-4-ylamino)methyl)-2H-pyrido[3,2-b][1,4]oxazin-3(4H)-one Hydrochloride], the MIC was determined as 0.125 µg/mL.
On the same count and under the same terms, then `Cl.O=C1COc2ccc(CNC34CCC(CCc5c(F)cnc6ccc(OCCCO)nc56)(CC3)OC4)nc2N1` [Example 35, 6-((1-(2-(3-Fluoro-6-(3-hydroxypropoxy)-1,5-naphthyridin-4-yl)ethyl)-2-oxabicyclo[2.2.2]octan-4-ylamino)methyl)-2H-pyrido[3,2-b][1,4]oxazin-3(4H)-one Hydrochloride], with 0.016 µg/mL; and `COc1cc(F)c2ncc(F)c(CCC34CCC(NCc5ccc6c(n5)NC(=O)CO6)(CC3)CO4)c2c1.Cl` [Example 189, 6-((1-(2-(3,8-Difluoro-6-methoxyquinolin-4-yl)ethyl)-2-oxabicyclo[2.2.2]octan-4-ylamino)methyl)-2H-pyrido[3,2-b][1,4]oxazin-3(4H)-one Hydrochloride], with 0.016 µg/mL.
Still for that read-out and setting: the result for `COc1ccc2ncc(F)c(C(CO)CC34CCC(NCc5ccc6c(n5)NC(=O)CO6)(CC3)CO4)c2n1.Cl` (stereo not drawn) [Example 194, 1-(2-(3-Fluoro-6-methoxy-1,5-naphthyridin-4-yl)-3-hydroxypropyl)-N-((3-oxo-3,4-dihydro-2H-pyrido[3,2-b][1,4]oxazin-6-yl)methyl)-2-oxabicyclo[2.2.2]octan-4-aminium chloride] reads 1 µg/mL; that for `COc1ccc2ncc(F)c(C(O)CC34CCC(NCc5ccc6c(n5)NC(=O)CO6)(CC3)CS4)c2n1` (stereo not drawn) [Example 208, 6-(((1-(2-(3-Fluoro-6-methoxy-1,5-naphthyridin-4-yl)-2-hydroxyethyl)-2-thiabicyclo[2.2.2]octan-4-yl)amino)methyl)-2H-pyrido[3,2-b][1,4]oxazin-3(4H)-one], 0.06 µg/mL (≈ 0.114 µM).
